Activity calls are given as the source filed them.
Assays:
[1] = target: DNA dC->dU-editing enzyme APOBEC-3G (Homo sapiens, UniProt Q9HC16); assay type: functional;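 further: Dose-response counterscreen measuring inhibition of APOBEC3G DNA deaminase activity, run while confirming APOBEC3A inhibitors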
[2] = target: DNA dC->dU-editing enzyme APOBEC-3A (Homo sapiens, UniProt P31941); experiment: Dose Response confirmation of small molecule APOBEC3A DNA Deaminase Inhibitors via a fluorescence-based single-stranded DNA deaminase assay. [Related pubchem assays (depositor defined):AID493011, AID493024]; assay type: functional
[3] = target: Dual specificity tyrosine-phosphorylation-regulated kinase 1A (Rattus norvegicus, UniProt Q63470); assay type: biochemical, Homo sapiens
Escherichia coli = experiment: microbe, parasite or virus in culture
Nonstructural protein 1 = Nonstructural protein 1 (Influenza A virus, UniProt Q194T2); assay type: functional, Influenza A virus (A/California/07/2009(H1N1))
[4] = target: T1, DNA repair protein RAD52 homolog (Homo sapiens, UniProt P43351); assay type: functional, biochemical
T1 sequence (P43351 whole entry): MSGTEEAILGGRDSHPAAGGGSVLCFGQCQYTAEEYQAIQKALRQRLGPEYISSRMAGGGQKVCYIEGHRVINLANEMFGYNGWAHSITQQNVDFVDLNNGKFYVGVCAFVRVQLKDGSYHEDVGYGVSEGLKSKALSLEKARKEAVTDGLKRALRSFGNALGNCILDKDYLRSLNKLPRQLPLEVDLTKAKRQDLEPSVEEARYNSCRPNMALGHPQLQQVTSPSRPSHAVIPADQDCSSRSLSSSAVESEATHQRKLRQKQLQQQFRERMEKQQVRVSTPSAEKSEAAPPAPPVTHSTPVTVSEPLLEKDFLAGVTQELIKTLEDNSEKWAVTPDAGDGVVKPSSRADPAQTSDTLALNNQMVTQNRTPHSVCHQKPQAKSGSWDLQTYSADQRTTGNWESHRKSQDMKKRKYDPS

Bcl-2-related protein A1 = target: T2, Bcl-2-related protein A1 (Mus musculus, UniProt Q07440); assay type: functional;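 further: confirmatory dose–response counterscreen on Bfl-1, used to check hits from a UBC13 polyubiquitin inhibitor campaign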
T2 sequence (Q07440 whole entry): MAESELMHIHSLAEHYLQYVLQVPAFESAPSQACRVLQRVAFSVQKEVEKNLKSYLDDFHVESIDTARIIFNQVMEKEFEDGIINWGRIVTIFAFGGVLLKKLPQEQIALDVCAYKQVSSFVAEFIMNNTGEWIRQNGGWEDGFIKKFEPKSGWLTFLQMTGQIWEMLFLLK

[5] = target: T3, Ubiquitin-conjugating enzyme E2 N (Homo sapiens, UniProt P61088); assay type: functional
T3 sequence (P61088 whole entry): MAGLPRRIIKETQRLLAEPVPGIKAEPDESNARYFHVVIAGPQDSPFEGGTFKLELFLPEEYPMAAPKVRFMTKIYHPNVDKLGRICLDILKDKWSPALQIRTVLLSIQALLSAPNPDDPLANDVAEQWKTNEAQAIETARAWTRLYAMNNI

[6] = target: T3, Ubiquitin-conjugating enzyme E2 N; assay type: functional; remark: listed apart in the source
Cytochrome P450 1A2 = target: T4, Cytochrome P450 1A2 (Homo sapiens, UniProt P05177);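 further: PubChem cytochrome P450 panel assay, CYP1A2 panel member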
T4 sequence (P05177 whole entry): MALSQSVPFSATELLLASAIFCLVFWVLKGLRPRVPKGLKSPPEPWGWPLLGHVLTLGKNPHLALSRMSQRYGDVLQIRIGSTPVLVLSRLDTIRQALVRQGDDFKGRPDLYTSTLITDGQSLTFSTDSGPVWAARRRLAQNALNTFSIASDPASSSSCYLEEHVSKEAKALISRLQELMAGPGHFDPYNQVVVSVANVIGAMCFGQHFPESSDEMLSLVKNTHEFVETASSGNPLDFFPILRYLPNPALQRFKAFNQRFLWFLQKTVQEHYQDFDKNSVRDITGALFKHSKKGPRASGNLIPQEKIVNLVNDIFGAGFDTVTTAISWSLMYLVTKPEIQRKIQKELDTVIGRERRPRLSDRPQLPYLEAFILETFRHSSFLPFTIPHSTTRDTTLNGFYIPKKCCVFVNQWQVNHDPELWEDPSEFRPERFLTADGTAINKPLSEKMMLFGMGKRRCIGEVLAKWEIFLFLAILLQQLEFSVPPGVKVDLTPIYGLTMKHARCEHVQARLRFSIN

Cytochrome P450 2C9 = Cytochrome P450 2C9 (Homo sapiens, UniProt P11712)
Cytochrome P450 3A4 = Cytochrome P450 3A4 (Homo sapiens, UniProt P08684);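 further: CYP3A4 tested as one member of a cytochrome P450 panel screen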
[7] = cytotoxicity in HEK-293T cells, dose response, cytotoxicity control for TCR NF-kB inhibitor project, luminescence, T-cell screen hits (AID 489026); assay type: functional, cell-based;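 further: cells exposed to compound about 14 hours before the viability readout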
[8] = target: Glyceraldehyde-3-phosphate dehydrogenase (Homo sapiens, UniProt P04406)
[9] = target: T5, Alkaline phosphatase, tissue-nonspecific isozyme (Homo sapiens, UniProt P05186); experiment: human TNAP enzyme inhibitors, SAR follow-up, biochemical, luminescent, dose response (AID 1056)
T5 sequence (P05186 whole entry): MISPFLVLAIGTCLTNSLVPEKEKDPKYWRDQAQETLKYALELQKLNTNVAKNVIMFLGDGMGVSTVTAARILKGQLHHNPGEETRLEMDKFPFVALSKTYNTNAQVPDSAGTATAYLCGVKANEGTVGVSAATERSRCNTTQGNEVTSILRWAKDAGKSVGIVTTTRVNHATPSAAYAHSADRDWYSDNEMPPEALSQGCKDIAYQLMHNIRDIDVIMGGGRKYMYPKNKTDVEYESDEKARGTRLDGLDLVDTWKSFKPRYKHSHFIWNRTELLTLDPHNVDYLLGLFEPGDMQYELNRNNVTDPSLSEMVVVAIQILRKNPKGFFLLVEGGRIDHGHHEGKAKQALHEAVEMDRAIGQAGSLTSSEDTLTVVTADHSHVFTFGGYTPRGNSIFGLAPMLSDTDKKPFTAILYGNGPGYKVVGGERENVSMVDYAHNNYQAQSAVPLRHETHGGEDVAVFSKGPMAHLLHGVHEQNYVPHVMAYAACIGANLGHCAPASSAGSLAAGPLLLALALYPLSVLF

Cytochrome P450 2C19 = Cytochrome P450 2C19 (Homo sapiens, UniProt P33261); experiment: Cytochrome panel assay with activity outcomes. Panel member name: p450-cyp2c19 Compounds with AC50 equal or less than 10 uM are considered active; assay type: functional
[10] = microbe, parasite or virus in culture; assay type: functional; details: Mycobacterium tuberculosis
[11] = Luminescence Cell-Based Dose Retest to Confirm Inhibitors of Cancer Stem Cells. [Related pubchem assays (depositor defined):AID2717, AID2721]; assay type: functional; details: Homo sapiens
Melanocortin receptor 4 = Melanocortin receptor 4 (Homo sapiens, UniProt P32245); assay type: functional, cell-based;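 further: Cell-based assay with luminescence read-out, confirmatory dose-response testing for agonist activity of biased ligands at MC4R; human U2OS cells with tagged receptor and beta-arrestin; potency of agonists that increase receptor coupling to beta-arrestin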
[12] = target: G-protein coupled receptor 55 (Homo sapiens, UniProt Q9Y2T6); experiment: GPR55 antagonists blocking LPI-driven arrestin recruitment, primary screen, imaging, U2OS, beta-arrestin-GFP, LPI agonist (AID 2013); assay type: functional;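 further: antagonist potency measured as reduced agonist-driven arrestin aggregation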
[13] = target: T6, Calpain-2 catalytic subunit (Sus scrofa, UniProt P43367); experiment: pig calpain II inhibitor potency, dose response, biochemical, fluorogenic peptide substrate (AID 1420); assay type: functional
T6 sequence (P43367 whole entry): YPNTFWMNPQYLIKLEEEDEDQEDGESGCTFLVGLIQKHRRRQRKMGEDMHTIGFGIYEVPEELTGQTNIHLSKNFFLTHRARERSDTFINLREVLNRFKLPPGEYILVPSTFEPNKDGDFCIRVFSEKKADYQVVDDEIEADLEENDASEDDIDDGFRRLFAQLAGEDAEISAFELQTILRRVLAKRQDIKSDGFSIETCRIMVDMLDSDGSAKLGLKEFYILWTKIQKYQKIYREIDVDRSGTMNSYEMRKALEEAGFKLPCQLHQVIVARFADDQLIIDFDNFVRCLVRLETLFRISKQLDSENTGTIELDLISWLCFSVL

[14] = Luminescence Cell-Based Dose Response HTS to Identify Inhibitors of 5'UTR Stem-Loop Driven Prion Protein mRNA Translation in H4 Neuroglioblastoma Cells. [Related pubchem assays: 1827 (Project Summary), 1813 (Primary HTS)]; assay type: functional
[15] = inhibitors of firefly luciferase expression or activity, dose response, H4 neuroglioma cells, luminescence (AID 1990); assay type: functional, cell-based
[16] = inhibitors of SNCA 5'UTR-driven reporter translation, confirmation, H4 neuroglioma cells, luminescence (AID 1988); assay type: functional, cell-based
INS1 = experiment: beta cell apoptosis inhibitors, cytokine rescue, dose response, luminescence, retest (AID 449756); assay type: functional, cell-based; details: Rattus norvegicus;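 further: cell death triggered by IL-1 beta plus TNF-alpha plus IFN-gamma mixture; protective hits raise ATP signal compared with cytokine alone wells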
Streptococcus = experiment: Group A Streptococcus viability loss, dose response, counter-screen for streptokinase expression inhibitor project, luminescence, BacTiterGlo (AID 1915); assay type: functional, organism-based;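 further: potency for reduction of bacterial viability or growth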
Streptokinase A = target: T7, Streptokinase A (Streptococcus pyogenes serotype M1, UniProt P10520); experiment: S. pyogenes streptokinase expression inhibitors, potency, dose response, plasminogen activation absorbance, OD405 (AID 1914); assay type: functional, Streptococcus pyogenes M1 GAS;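 further: secreted streptokinase activity via plasminogen activation per viability signal from cell pellet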
T7 sequence (P10520 whole entry): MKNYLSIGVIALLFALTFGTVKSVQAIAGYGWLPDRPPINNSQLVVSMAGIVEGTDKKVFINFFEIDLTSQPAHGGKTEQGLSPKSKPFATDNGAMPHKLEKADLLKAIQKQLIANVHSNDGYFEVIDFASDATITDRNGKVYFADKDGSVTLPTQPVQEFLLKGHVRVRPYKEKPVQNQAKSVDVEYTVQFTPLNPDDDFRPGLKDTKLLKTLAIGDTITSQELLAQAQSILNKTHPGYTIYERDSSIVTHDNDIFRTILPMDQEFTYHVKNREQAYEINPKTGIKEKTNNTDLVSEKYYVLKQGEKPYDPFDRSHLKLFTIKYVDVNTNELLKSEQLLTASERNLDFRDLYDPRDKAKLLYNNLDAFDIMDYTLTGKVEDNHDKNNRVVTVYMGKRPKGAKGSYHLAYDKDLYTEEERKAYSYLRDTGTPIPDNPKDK

[17] = tested on: Streptococcus sp. 'group A'; experiment: growth inhibition of control SK(-) GAS strain, dose response, counter-screen for streptokinase expression inhibitor project, luminescence, kanamycin, BacTiterGlo, confirmation (AID 1900); assay type: functional, organism-based

Sequence of Cytochrome P450 3A4 (P08684 whole entry): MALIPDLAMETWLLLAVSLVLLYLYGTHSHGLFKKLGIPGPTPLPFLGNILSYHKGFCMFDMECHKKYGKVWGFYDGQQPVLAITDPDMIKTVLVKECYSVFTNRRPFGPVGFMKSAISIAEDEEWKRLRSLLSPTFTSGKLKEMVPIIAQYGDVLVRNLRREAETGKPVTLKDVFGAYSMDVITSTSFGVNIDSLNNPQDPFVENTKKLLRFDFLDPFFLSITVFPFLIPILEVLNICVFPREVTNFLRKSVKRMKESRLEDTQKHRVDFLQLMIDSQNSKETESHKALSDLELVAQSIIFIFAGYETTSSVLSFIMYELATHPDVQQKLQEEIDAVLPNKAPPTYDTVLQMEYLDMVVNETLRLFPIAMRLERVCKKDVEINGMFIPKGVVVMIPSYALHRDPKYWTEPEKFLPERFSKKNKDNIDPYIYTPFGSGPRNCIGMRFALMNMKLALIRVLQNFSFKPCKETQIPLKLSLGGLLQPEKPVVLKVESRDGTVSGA
Sequence of DNA dC->dU-editing enzyme APOBEC-3G (Q9HC16 whole entry): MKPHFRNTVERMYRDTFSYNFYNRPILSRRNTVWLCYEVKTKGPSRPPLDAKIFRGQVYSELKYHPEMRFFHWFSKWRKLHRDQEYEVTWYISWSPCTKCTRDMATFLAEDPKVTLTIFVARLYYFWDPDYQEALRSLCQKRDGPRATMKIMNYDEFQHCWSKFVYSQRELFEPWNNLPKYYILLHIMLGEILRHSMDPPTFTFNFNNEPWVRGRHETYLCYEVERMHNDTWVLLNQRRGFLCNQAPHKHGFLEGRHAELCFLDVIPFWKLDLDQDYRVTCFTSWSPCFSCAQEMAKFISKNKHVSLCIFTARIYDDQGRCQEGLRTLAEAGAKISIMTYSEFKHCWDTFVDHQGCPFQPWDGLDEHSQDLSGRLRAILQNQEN
Sequence of DNA dC->dU-editing enzyme APOBEC-3A (P31941 whole entry): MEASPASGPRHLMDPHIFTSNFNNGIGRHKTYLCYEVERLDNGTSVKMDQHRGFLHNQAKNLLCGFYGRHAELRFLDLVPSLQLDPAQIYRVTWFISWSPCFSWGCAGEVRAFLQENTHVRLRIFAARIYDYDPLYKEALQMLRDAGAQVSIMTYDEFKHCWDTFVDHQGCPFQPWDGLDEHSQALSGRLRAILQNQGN
Sequence of Glyceraldehyde-3-phosphate dehydrogenase (P04406 whole entry): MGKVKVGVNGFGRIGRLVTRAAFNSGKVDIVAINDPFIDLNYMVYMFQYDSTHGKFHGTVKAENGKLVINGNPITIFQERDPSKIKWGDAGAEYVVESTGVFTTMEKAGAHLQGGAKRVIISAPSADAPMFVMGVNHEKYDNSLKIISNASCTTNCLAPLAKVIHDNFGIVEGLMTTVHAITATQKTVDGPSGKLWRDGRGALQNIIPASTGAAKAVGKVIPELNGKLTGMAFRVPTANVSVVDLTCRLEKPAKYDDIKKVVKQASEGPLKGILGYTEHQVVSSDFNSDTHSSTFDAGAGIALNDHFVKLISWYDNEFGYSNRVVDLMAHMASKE
Sequence of Cytochrome P450 2C9 (P11712 whole entry): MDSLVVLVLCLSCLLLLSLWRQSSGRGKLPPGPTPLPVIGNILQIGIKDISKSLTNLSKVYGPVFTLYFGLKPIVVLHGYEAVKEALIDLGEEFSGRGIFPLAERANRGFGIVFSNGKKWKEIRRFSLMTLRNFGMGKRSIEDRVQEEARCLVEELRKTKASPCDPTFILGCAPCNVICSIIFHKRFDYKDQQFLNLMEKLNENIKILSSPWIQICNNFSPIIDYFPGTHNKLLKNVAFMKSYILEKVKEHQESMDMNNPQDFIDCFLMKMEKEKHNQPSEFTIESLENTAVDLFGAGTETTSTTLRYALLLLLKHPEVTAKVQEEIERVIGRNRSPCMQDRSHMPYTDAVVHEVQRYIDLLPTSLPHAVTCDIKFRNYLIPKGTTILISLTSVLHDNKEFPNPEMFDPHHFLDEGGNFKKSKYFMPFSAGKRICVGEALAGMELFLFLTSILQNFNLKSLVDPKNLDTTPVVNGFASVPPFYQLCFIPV
Sequence of G-protein coupled receptor 55 (Q9Y2T6 whole entry): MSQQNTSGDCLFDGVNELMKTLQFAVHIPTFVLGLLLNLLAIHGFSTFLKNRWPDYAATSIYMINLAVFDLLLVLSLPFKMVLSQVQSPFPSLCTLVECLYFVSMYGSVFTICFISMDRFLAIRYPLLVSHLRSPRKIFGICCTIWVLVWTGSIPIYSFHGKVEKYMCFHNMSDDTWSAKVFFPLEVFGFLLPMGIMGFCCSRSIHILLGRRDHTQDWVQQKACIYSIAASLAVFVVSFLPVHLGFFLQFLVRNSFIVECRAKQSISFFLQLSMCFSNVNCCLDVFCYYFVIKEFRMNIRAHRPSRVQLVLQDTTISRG
Sequence of Melanocortin receptor 4 (P32245 whole entry): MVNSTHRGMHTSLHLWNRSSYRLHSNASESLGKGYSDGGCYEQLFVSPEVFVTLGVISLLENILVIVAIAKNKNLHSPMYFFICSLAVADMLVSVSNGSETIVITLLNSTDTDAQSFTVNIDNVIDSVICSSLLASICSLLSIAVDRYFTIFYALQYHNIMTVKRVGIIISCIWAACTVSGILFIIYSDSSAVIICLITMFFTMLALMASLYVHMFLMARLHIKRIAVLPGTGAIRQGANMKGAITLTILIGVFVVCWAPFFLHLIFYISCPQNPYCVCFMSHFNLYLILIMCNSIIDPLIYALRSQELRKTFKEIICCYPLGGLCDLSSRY
Sequence of Cytochrome P450 2C19 (P33261 whole entry): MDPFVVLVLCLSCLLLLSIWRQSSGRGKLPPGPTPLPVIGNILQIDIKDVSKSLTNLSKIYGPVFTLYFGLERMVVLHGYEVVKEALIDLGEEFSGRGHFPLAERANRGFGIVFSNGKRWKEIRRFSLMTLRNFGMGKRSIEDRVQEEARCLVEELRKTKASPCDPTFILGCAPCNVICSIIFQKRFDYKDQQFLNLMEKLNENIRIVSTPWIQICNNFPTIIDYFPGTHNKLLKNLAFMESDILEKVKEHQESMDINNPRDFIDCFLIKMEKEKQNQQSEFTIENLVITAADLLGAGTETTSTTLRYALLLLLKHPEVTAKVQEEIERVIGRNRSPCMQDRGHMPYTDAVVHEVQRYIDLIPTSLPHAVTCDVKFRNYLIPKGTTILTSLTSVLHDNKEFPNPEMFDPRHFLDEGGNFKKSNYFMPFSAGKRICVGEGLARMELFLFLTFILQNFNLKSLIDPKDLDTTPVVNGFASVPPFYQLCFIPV
Sequence of Nonstructural protein 1 (Q194T2 whole entry): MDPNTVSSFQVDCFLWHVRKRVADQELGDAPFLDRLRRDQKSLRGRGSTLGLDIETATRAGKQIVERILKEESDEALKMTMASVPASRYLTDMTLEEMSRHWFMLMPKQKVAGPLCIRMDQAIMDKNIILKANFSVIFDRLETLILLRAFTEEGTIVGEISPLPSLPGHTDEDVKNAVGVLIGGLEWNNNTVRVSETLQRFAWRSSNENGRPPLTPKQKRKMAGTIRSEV

CCN1C(NCCc2c[nH]c3ccccc23)=N[C@@H](c2ccccc2)[C@H](C(=O)OC)[C@H]1C
IC50 [1]: 8.65 µM (active) | IC50 [2]: 6.29 µM (active)

O=C(/C=C/c1ccccc1)Nc1cccnc1Oc1ccccc1F
AC50 [3]: 11.1 µM (active)

CC(=O)Oc1ccc(C(=O)Cc2ccccn2)c(O)c1
AC50 (Escherichia coli): 27.9 µM (active)

O=C(c1ccc(-c2cc(O)c3ncccc3c2)cc1)N1CCNCC1
IC50 (Nonstructural protein 1): 9.74 µM (active) | AC50 [4]: 1.66 µM (active) | IC50 (Bcl-2-related protein A1): 7 µM (active) | IC50 [5]: 3.14 µM (active) | IC50 [6]: 3.61 µM (active)

C=CCN1CCc2c(cc(O)c(O)c2Cl)[C@H](c2ccccc2)C1
AC50 (Cytochrome P450 1A2): 20 µM (inconclusive) | AC50 (Cytochrome P450 2C9): 31.6 µM (inconclusive) | AC50 (Cytochrome P450 3A4): inconclusive

COc1ccc(S(=O)(=O)N2N=C(C)Oc3ccccc3C2=O)cc1
IC50 [7]: > 80 µM (inactive)

Nc1nc2c(s1)CCCCCCCCCC2
IC50 [1]: 4.49 µM (active) | IC50 [2]: 7.08 µM (active)

O=S(=O)(Nc1ccccc1I)c1cnc2ccccc2c1
IC50 [8]: > 10 µM (inconclusive) | IC50 [9]: > 10 µM (inactive)

O=C(C[n+]1ccc(CCSc2ccc(F)cc2)cc1)c1ccccc1
IC50 (Bcl-2-related protein A1): 5.2 µM (active) | IC50 [5]: 1.02 µM (active) | IC50 [6]: 1.46 µM (active)

COC(=O)Cc1cc(O)n2nc(C)c(-c3ccccc3)c2n1
AC50 (Cytochrome P450 3A4): inconclusive

CC(=O)O[C@H]1CC[C@@]2(C)[C@@H](CC[C@H]3[C@H]2CC(=O)[C@]2(C)[C@@H]3C[C@@H](N3CC3)[C@H]2C(C)=O)C1
AC50 (Cytochrome P450 2C19): inconclusive | AC50 (Cytochrome P450 1A2): 0.0398 µM (inconclusive) | AC50 (Cytochrome P450 3A4): inconclusive

COC(=O)C(C)Oc1cc(C)cc2oc(=O)c3c(c12)CCCC3 (stereo unspecified)
AC50 (Escherichia coli): 28.2 µM (active)

COc1cc2nc(Nc3ccc(C)c(Cl)c3)nc(N)c2cc1OC
AC50 [4]: 9.23 µM (active) | IC50 (Bcl-2-related protein A1): 18.7 µM (active) | CC50 [10]: 3.77 µM (active) | AC50 [11]: 6.52 µM (active) | IC50 [5]: 5.71 µM (active) | EC50 (Melanocortin receptor 4): > 89.2 µM (inactive) | IC50 [6]: 8.57 µM (active)

CC(C)[N+](C)(C)CC(O)CN(c1ccccc1)c1ccccc1 (stereo unspecified)
IC50 [1]: 2.65 µM (active) | IC50 [2]: 3.2 µM (active)

S=c1[nH]nc(CSCc2ccccc2Cl)n1C1CCCCC1
IC50 [12]: 3.7 µM (active) | IC50 [13]: 11.1 µM (not active)

O=C(c1ccccc1F)c1cn(Cc2ccccc2)c2ccccc12
AC50 (Cytochrome P450 2C9): 35.5 µM (inconclusive) | AC50 (Cytochrome P450 3A4): inconclusive

CCN1CCN(Cc2ccc(NC(=O)c3cc(NC(=O)C(=O)c4c[nH]c5ccccc45)cc(OC)c3)cc2C(F)(F)F)CC1
EC50 [14]: 6.9 µM (active) | IC50 (Bcl-2-related protein A1): > 20 µM (inactive) | IC50 [5]: 11.9 µM (active) | EC50 [15]: 8.53 µM (active) | EC50 [16]: 9.06 µM (active) | AC50 (INS1): 7.13 µM (active) | IC50 [6]: 16.8 µM (active)

CCCCSc1nnc(N)[nH]1
IC50 [8]: > 100 µM (not active) | IC50 [9]: > 100 µM (inactive)

O=C(c1cn(Cc2ccccc2)nc1-c1ccccc1)N1CCN(c2ccccn2)CC1
IC50 [7]: > 80 µM (inactive)

CCOc1cc(S(=O)(=O)Nc2cccnc2)c(OCC)cc1C
IC50 [9]: 2.61 µM (active)

Cc1c(C(=O)N/N=C/c2ccc(Cl)cc2)[nH]c2ccc(Cl)cc12
EC50 (Streptococcus): 10.9 µM (active) | EC50 (Streptokinase A): > 150 µM (not active) | EC50 [17]: 2.61 µM (active) | IC50 [7]: > 80 µM (inactive)

Cc1cccc(/C=N/NC(=O)c2cc(C3CC3)nc3ccccc23)n1
AC50 (Escherichia coli): 37.9 µM (active)

Oc1ccc(/C=N/n2c(S)nnc2-c2ccccc2)cc1Br
AC50 [3]: 11.8 µM (active)

Oc1ccc(/C=N/n2c(-c3ccccc3)n[nH]c2=S)cc1
AC50 [3]: 4.2 µM (active)

Source: ChEMBL document CHEMBL1201862, “PubChem BioAssay data set” (2004)
